Results: patent US11566030B2, “Substituted 2,6-dihydropyrrolo[3,4-c]pyrazoles as pyruvate kinase activators” (priority 2021, dated 2023)
Read-outs that look alike come from different tables or passages of the source.

Target: T1, Human pyruvate kinase R (PKR) (Homo sapiens, UniProt P30613)
T1 construct: Human pyruvate kinase R (PKR), residues 14-574; 6xHis-8xArg-SUMO (N, cleaved yes); host or cells: E. coli
Assay: Biochemical assay for activation of pyruvate kinase R (Kinase-Glo luminescence, ATP generation)
Details: for Emax: read-out: PKR % activation, maximal activation level achieved with each compound relative to the activation level achieved by AG-348 @ 10 μM
Description: Human pyruvate kinase R (PKR), residues 14-574, and human pyruvate kinase M2, residues 1-531, were cloned into expression plasmids and obtained from ATUM Bio (Newark, Calif.). Proteins were translated as fusions with 6×-His,8×-Arg, and SUMO at the N-terminus. A third construct of human PKR was truncated, residues 50-574, and similarly cloned for use in crystallography experiments. All proteins were cloned, expressed in E. coli, and purified using similar protocols. Cells were grown at 30° C. in Luria-Bertani broth supplemented with 0.4% glucose to OD600=0.8 and induced with 0.4 mM IPTG at 16° C. for 18 hours. Cells were harvested by centrifugation, resuspended in 50 mM potassium phosphate pH 8.0, 500 mM NaCl, 25 mM imidazole pH 8.0, and 3 mM β-mercaptoethanol. Cells were lysed using a LM20 microfluidizer from Microfluidics (Westwood, Mass.). The crude lysate was immediately supplemented with 0.2 mM phenylmethylsulfonyl fluoride (PMSF) and centrifuged at 20,000 g for 20 minutes. The soluble fraction was subsequently incubated with 2 mL Ni-NTA (GE Healthcare) per 1,000 ODs for 1 hour at 4° C. Following incubation with the Ni-NTA resin, lysate was removed by pelleting resin at 2,500 g for 3 minutes and washed 3 times with 9 bed volumes of 50 mM potassium phosphate pH 8.0, 500 mM NaCl, 25 mM imidazole, and 3 mM β-mercaptoethanol. Following the batch wash Ni-NTA resin was loaded onto a gravity column and His-tagged protein was eluted with 6 bed volumes of 10 mM Tris/HCl pH 8.0, 200 mM NaCl, 500 mM imidazole, and 3 mM β-mercaptoethanol. Eluted protein was dialyzed overnight against 10 mM Tris/HCl pH 8.0, 200 mM NaCl, and 1 mM DTT and the 6×-His-8×-Arg-SUMO-tag was cleaved using a 20:1 molar ratio of protein: 3C protease. The protein was purified by anion exchange chromatography on a HiTrapQ or MonoQ 10/100 GL column (GE Healthcare) via a linear NaCl gradient and twice by size exclusion chromatography using a Superdex S200 26/60 column (GE Healthcare) run in 10 mM Tris/HCl pH 8.0, 200 mM NaCl, 10 mM MgCl2, 1 mM DTT. Proteins were concentrated to −12 mg/mL for crystallization and flash frozen for storage.
Biochemical assay for Activation of Pyruvate Kinase R
Activation of pyruvate kinase R (PKR) and pyruvate kinase M2 (PKM2) were measured using a luminescence based measurement of ATP generation and the Kinase-Glo luminescent kinase reagent kit.

[1] = PKR AC50 (nM), 0.1 nM PKR, 0.3 mM ADP, 0.1 mM PEP, 1% DMSO

T1 sequence (P30613 14-574): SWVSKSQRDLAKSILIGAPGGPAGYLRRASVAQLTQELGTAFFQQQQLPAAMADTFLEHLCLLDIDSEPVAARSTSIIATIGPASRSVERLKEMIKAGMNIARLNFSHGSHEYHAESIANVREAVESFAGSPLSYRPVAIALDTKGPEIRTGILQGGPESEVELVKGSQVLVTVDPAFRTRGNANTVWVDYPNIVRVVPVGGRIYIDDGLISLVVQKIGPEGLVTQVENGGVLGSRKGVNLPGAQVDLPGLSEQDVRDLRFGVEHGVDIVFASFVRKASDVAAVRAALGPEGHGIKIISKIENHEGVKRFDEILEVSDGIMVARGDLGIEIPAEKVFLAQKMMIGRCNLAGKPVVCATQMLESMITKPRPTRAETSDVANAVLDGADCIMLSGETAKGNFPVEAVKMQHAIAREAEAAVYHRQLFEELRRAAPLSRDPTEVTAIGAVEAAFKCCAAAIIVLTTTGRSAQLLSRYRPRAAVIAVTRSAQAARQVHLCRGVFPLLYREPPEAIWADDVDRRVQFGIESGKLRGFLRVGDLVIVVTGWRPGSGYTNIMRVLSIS

Structure (SMILES) | AC50 [1] [nM] | Emax [%] | AC50 [nM]
O=C([C@H](CO)c1ncccc1F)N1Cc2cn(S(=O)(=O)c3cnn(CC(F)F)c3)nc2C1 (single isomer, unassigned) [Compound 42] | 2100 | 102 | –
O=C([C@@H](CO)c1ccccc1Cl)N1Cc2cn(S(=O)(=O)c3cnn(CC(F)(F)F)c3)nc2C1 [Compound 48, (2R)-2-(2-chlorophenyl)-3-hydroxy-1-[2-[1-(2,2,2-trifluoroethyl)pyrazol-4-ylsulfonyl]-4H,6H-pyrrolo[3,4-c]pyrazol-5-yl]propan-1-one] | 580 | 111 | –
O=C([C@@H](O)c1ccccc1)N1Cc2cn(S(=O)(=O)c3cnn(CC(F)F)c3)nc2C1 [Compound 34, (2S)-1-[2-[1-(2,2-difluoroethyl)pyrazol-4-ylsulfonyl]-4H,6H-pyrrolo[3,4-c]pyrazol-5-yl]-2-hydroxy-2-phenylethanone] | – | 102 | 930
O=C([C@H](CO)c1ccccc1Cl)N1Cc2cn(S(=O)(=O)c3ccn(CC(F)(F)F)n3)nc2C1 [Compound 63, (2S)-2-(2-chlorophenyl)-3-hydroxy-1-[2-[1-(2,2,2-trifluoroethyl)pyrazol-3-ylsulfonyl]-4H,6H-pyrrolo[3,4-c]pyrazol-5-yl]propan-1-one] | 50 | 85 | –
O=C(N1Cc2cn(S(=O)(=O)c3cnn(CC(F)(F)F)c3)nc2C1)C1(c2ncccc2Cl)COC1 [Compound 52, (3-(3-chloropyridin-2-yl)oxetan-3-yl)(2-((1-(2,2,2-trifluoroethyl)-1H-pyrazol-4-yl)sulfonyl)-2,6-dihydropyrrolo[3,4-c]pyrazol-5(4H)-yl)methanone] | 24 | 93 | –
Cc1cn(CC(F)(F)F)nc1S(=O)(=O)n1cc2c(n1)CN(C(=O)[C@H](CO)c1ccccc1F)C2 [Compound 68, (2S)-2-(2-fluorophenyl)-3-hydroxy-1-{2-[4-methyl-1-(2,2,2-trifluoroethyl)pyrazol-3-ylsulfonyl]-4H,6H-pyrrolo[3,4-c]pyrazol-5-yl}propan-1-one] | 2100 | 9 | –
CCOc1ncc(S(=O)(=O)n2cc3c(n2)CN(C(=O)[C@H](CO)c2ccccc2)C3)s1 [Compound 119, (2S)-1-{2-[(2-ethoxy-1,3-thiazol-5-yl)sulfonyl]-2H,4H,5H,6H-pyrrolo[3,4-c]pyrazol-5-yl}-3-hydroxy-2-phenylpropan-1-one] | – | 58 | 54
Cc1cn(CC(F)F)nc1S(=O)(=O)n1cc2c(n1)CN(C(=O)[C@@H](CO)c1ccccc1F)C2 [Compound 79, (2R)-1-{2-[1-(2,2-difluoroethyl)-4-methylpyrazol-3-ylsulfonyl]-4H,6H-pyrrolo[3,4-c]pyrazol-5-yl}-2-(2-fluorophenyl)-3-hydroxypropan-1-one] | – | 33 | 550
O=C([C@H](CO)c1cccc(F)c1F)N1Cc2cn(S(=O)(=O)c3cnn(CC(F)(F)F)c3)nc2C1 [Compound 73, (2S)-2-(2,3-difluorophenyl)-3-hydroxy-1-{2-[1-(2,2,2-trifluoroethyl)pyrazol-4-ylsulfonyl]-4H,6H-pyrrolo[3,4-c]pyrazol-5-yl}propan-1-one] | 17 | 66 | –
Cc1c(S(=O)(=O)n2cc3c(n2)CN(C(=O)[C@H](CO)c2ccccc2F)C3)cnn1CCF [Compound 96] | – | 93 | 6.4
O=C([C@H](CO)c1ccccc1)N1Cc2cn(S(=O)(=O)c3ccc(CCC(F)(F)F)s3)nc2C1 [Compound 17, (2S)-3-hydroxy-2-phenyl-1-(2-{[5-(3,3,3-trifluoropropyl)thiophen-2-yl]sulfonyl}-2H,4H,5H,6H-pyrrolo[3,4-c]pyrazol-5-yl)propan-1-one] | 53 | 23 | –
O=C([C@@H](CO)c1cccc(F)c1Cl)N1Cc2cn(S(=O)(=O)c3cnn(CC(F)F)c3)nc2C1 [Compound 56, (2R)-2-(2-chloro-3-fluorophenyl)-1-{2-[1-(2,2-difluoroethyl)pyrazol-4-ylsulfonyl]-4H,6H-pyrrolo[3,4-c]pyrazol-5-yl}-3-hydroxypropan-1-one] | – | 122 | 170
